Experiments:
A. baumannii = test: MIC, broth microdilution; format: cell-based, Acinetobacter baumannii; settings: Acinetobacter baumannii, ATCC17978; A. baumannii ATCC 17978; read-out: Minimum inhibitory concentration
Source text: Bacterial strains and growth conditions and persister isolation: methicillin-resistant S. aureus (MRSA) strain MW2 BAA-1707, vancomycin-resistant S. aureus strain VRS 1, 11 clinical S. aureus isolates, 8 clinical Enterococcus faecium isolates, Klebsiella pneumoniae WGLW2 (BEI Resources, Manassas, Va., USA), Acinetobacter baumannii ATCC 17978, Pseudomonas aeruginosa PA14, and Enterobacter aerogenes ATCC 13048 were used to test antimicrobial activity (See Table 1a). S. aureus and E. faecium strains were grown in tryptic soy broth (TSB) (BD, Franklin Lakes, N.J., USA) or brain-heart infusion (BHI) broth (BD, Franklin Lakes, N.J., USA), respectively at 37° C. at 225 rpm. K. pneumoniae, A. baumannii, P. aeruginosa, and E. aerogenes were grown in Luria Bertani (LB) broth (BD, Franklin Lakes, N.J., USA).
To test the bacterial MICs for compounds described herein, the total volume in each well was 100 μl of test compounds and bacterial cells in MH broth. […] The bacterial concentration was adjusted to an initial OD600 of 0.03. After incubation at 35° C. for 18 hrs, the absorbance was measured at 595 nm in accordance with CLSI document M07-A8. The MICs of antibiotics were determined by the standard microdilution method recommended by the Clinical and Laboratory Standards Institute.

MRSA strain MW2 = test: Checkerboard assay (combination); format: cell-based, Staphylococcus aureus; settings: for Fractional inhibitory concentration index (FICI): MRSA strain MW2, synergy FICI ≤ 0.5
Method: Checkerboard assay (e.g., antibiotic synergy test): The antimicrobial or antifungal activity of a combination of a compound of present application with other agents was determined through a checkerboard assay. The checkerboard method for determining synergy of synthetic retinoids with conventional antibiotics can be conducted, for example, as previously described (See, e.g., Rajamuthiah, R. et al. A defensin from the model beetle Tribolium castaneum acts synergistically with telavancin and daptomycin against multidrug resistant Staphylococcus aureus. PLoS ONE 10, e0128576 (2015)) The compounds whose combinations were being tested were arrayed in serial concentrations, vertically for one compound and horizontally for the other compound in the same 96 well microplate. 2-fold serial dilutions of each retinoid were combined with 2-fold serial dilutions of each conventional antibiotic, which created an 8×8 matrix in a 96-well microtiter plate. The rest of the procedure involving addition of pathogen and measurement of growth was carried out as described for measurement of MIC.
The Fractional Inhibitory Concentration (FIC) index for two compounds, A and B, is defined by the following equation: FIC=((A/MIC^A)+(B/MIC^B)). MIC^A and NIC^B are MICs of compound A or B respectively. (A) is the lowest concentration of compound A in combination with compound B that inhibits growth of a pathogen and (B) is the lowest concentration of compound B that inhibits growth of a pathogen.
Optical densities at 600 nm were measured after 18 h of incubation at 37° C. The results represent three independent experiments.

[1] = system: S. aureus persister cells (stationary phase); test: Persister killing assay; format: cell-based, Staphylococcus aureus; settings: for eradication of persisters formed by S. aureus strain VRS1 and 11 clinical S. aureus strains: 10×MIC, 4 h; for viability of MW2 persister cells, single agent: 4 μg/ml CD437 or CD1530 or 10 μg/ml gentamicin alone; for time to complete eradication of MW2 persisters, combination: 4 μg/ml retinoid plus 10 μg/ml gentamicin; for bactericidal concentration against MRSA persisters: MRSA MW2 persisters
Method: Persister killing assay. […] Persister cells of these 13 S. aureus strains were developed by growing cultures overnight to stationary phase at 37° C. at 225 rpm. The overnight cultures were washed three times with PBS and diluted to ˜10^7 CFU/ml with the same buffer, which is the same concentration as used in the killing kinetics assay described herein. 1 ml of the persister suspension containing appropriate concentrations of antibiotics was added to the wells of a 2 ml deep well assay block (Corning Costar 3960) and incubated at 37° C., with shaking at 225 rpm. At specific times, 50 μl samples were removed, serially diluted and spot-plated on TSA plates to enumerate the number of live cells. These experiments were conducted in triplicate.

[2] = system: Exponential-phase MRSA cells; test: Killing kinetics assay; format: cell-based, Staphylococcus aureus; settings: 10×MIC, result in words
Method: Killing kinetics assay. An S. aureus overnight culture was diluted 1:10,000 in 25 ml fresh TSB in a 250 ml flask. In order to obtain exponential-phase cells, the diluted cell suspension was incubated at 37° C., with shaking at 225 rpm for 4 h until the OD600 nm was 0.4 (˜2×10^7 CFU/ml). 0.5 ml of the exponential phase cell culture was added to the wells of a 2 ml deep well assay block (Corning Costar 3960) containing 0.5 ml of pre-warmed TSB with twice the desired concentrations of compounds. The assay block was sealed with a gas-permeable Breathe-Easy membrane and incubated at 37° C. shaking at 225 rpm. At specific times, 50 μl samples were removed, serially diluted and spot-plated onto tryptic soy agar (TSA, BD) plates to enumerate the number of cells. These experiments were conducted in triplicate.
Colony forming unit counts of cells were measured by serial dilution and plating on TSA plates. The data points on the x-axis are below the level of detection (2×10^2 CFU/mL). Results are shown as means±s.d.; n=3.

[3] = in combination with Ciprofloxacin

Structure (SMILES) | MIC (A. baumannii) | interaction with gentamicin (MRSA strain MW2; MRSA MW2, result in words) | Fractional inhibitory concentration index (FICI) (MRSA strain MW2; [3]) | Fractional inhibitory concentration index (FICI) (MRSA strain MW2; in combination with Defensin 1) | Fractional inhibitory concentration index (FICI) (MRSA strain MW2; in combination with Gentamicin) | Fractional inhibitory concentration index (FICI) (MRSA strain MW2; in combination with Rifampicin) | Fractional inhibitory concentration index (FICI) (MRSA strain MW2; in combination with Vancomycin) | eradication of S. aureus strain MW2 persisters ([1]; 8×MIC, result in words) | eradication of persisters formed by S. aureus strain VRS1 and 11 clinical S. aureus strains ([1]; result in words) | killing kinetics [2] | interaction with defensin 1 (MRSA strain MW2; MRSA MW2, result in words) | viability of MW2 persister cells, single agent [1] | time to complete eradication of MW2 persisters, combination [1] | bactericidal concentration against MRSA persisters [1]
O=C(O)/C=C/c1ccc(-c2ccc(O)c(C34CC5CC(CC(C5)C3)C4)c2)cc1 [Adarotene, (2E)-3-(4′-Hydroxy-3′-tricyclo[3.3.1.13,7]dec-1-yl[1,1′-biphenyl]-4-yl)-2-propenoic acid] | > 64 mg/L | significant synergistic antimicrobial activity | 0.75 | 1 | 0.5 | 1 | 1.016 | did not | not | fast killing kinetics |  |  |  | 
O=C(O)c1ccc2cc(-c3ccc(O)c(C45CC6CC(CC(C6)C4)C5)c3)ccc2c1 [CD437, 6-(4-hydroxy-3-tricyclo[3.3.1.13,7]dec-1-ylphenyl)-2-naphthalenecarboxylic acid] | > 64 mg/L | significant synergistic antimicrobial activity |  |  |  |  |  |  | annihilated | fast killing kinetics | synergism | did not significantly affect | ≤ 3 h | 8 µg/mL
O=C(O)c1ccc(-c2ccc3cc(O)c(C45CC6CC(CC(C6)C4)C5)cc3c2)cc1 [CD1530, 4-(6-hydroxy-7-tricyclo[3.3.1.13,7]dec-1-yl-2-naphthalenyl)-benzoic acid] | > 64 mg/L | significant synergistic antimicrobial activity | 0.75 | 1 | 0.5 | 0.75 | 1 |  | annihilated | fast killing kinetics |  | did not significantly affect | ≤ 4 h | 8 µg/mL
